Results: patent US11987588B2, “Modulators of the beta-3 adrenergic receptor useful for the treatment or prevention of heart failure and disorders related thereto” (Arena Pharmaceuticals, Inc., priority 2017, dated 2024)

Biological target: Beta-3 Adrenergic Receptor (Homo sapiens (Human), UniProt P13945)
Test: Homogeneous Time-Resolved Fluorescence (HTRF) cAMP antagonist assay, IC50 determination
Format: cell-based
Settings: CHO-K1 cells stably expressing recombinant receptor, isoproterenol at EC90
Experimental: HTRF cAMP assays were performed according to manufacturer's instructions (Cisbio, cAMP Dynamic 2 Assay Kit; #62AM4PEJ). CHO-K1 cells stably expressing recombinant receptor were harvested and suspended in warm PBS to make a 300,000 cells/mL stock. This cell suspension was dispensed into 384 well assay plates (PerkinElmer ProxiPlate #6008280) at 5 μL per well (1500 cells/well) along with a cAMP standard curve.
Compounds were dissolved and serially diluted (5-fold) in DMSO to generate a 10-point dose response stock. The stock was then diluted 100-fold in assay buffer (PBS containing 1 mM IBMX) before a volume of 2.5 μL was added to the cells (the final, top concentration of compound in the dose-response is typically 10 or 100 μM). After a brief incubation, 2.5 μL of isoproterenol stock, prepared at a concentration 4 times its EC90 at the receptor of interest, was added to the wells. The EC90 for isoproterenol, a beta-adrenergic agonist, was determined in separate experiments using standard methods to measure agonist potencies.
Following a 1-hour incubation at room temperature, 5 μL of cAMP-D2 Reagent diluted in Lysis Buffer was added to each well followed by 5 μL of Cryptate Reagent. Plates were further incubated at room temperature for 1 hour prior to reading. Time resolved fluorescence measurements were collected on a suitable, HTRF-capable plate reader.
Counts from the plate reader were fit to the cAMP standard curve on the assay plate in order to determine cAMP concentrations in each well, and these values were used to construct dose-response curves to obtain IC50 values.

Chain of Beta-3 Adrenergic Receptor (P13945 whole entry, species assumed): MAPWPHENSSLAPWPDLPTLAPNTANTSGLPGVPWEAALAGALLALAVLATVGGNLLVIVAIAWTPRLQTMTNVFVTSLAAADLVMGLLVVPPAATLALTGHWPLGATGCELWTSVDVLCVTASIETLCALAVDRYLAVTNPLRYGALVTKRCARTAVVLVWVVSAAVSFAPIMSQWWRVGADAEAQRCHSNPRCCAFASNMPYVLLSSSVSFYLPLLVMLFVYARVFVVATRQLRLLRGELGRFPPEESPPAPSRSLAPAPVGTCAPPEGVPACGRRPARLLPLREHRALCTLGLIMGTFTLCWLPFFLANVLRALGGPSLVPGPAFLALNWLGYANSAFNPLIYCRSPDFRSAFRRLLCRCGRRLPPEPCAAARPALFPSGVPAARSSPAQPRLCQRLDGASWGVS

SMILES	IC50
O=S(=O)(NCCCO)c1cccc(OC[C@@H](O)CNC2COC3(CCN(S(=O)(=O)c4ccc5ccccc5c4)CC3)C2)c1 (stereo partly drawn) [Compound 51, 3-((2S)-2-hydroxy-3-(8-(naphthalen-2-ylsulfonyl)-1-oxa-8-azaspiro[4.5]decan-3-ylamino)propoxy)-N-(3-hydroxypropyl)benzenesulfonamide]	0.0585 µM
CNS(=O)(=O)c1cccc(OC[C@@H](O)CNC2COC3(CCN(S(=O)(=O)c4ccc(Br)cc4)CC3)C2)c1 (stereo partly drawn) [Compound 52, 3-((2S)-3-(8-(4-bromophenylsulfonyl)-1-oxa-8-azaspiro[4.5]decan-3-ylamino)-2-hydroxypropoxy)-N-methylbenzenesulfonamide]	0.0141 µM
CNS(=O)(=O)c1cccc(OC[C@@H](O)CNC2COC3(CCN(S(=O)(=O)c4ccc(C)cc4)CC3)C2)c1 (stereo partly drawn) [Compound 53, 3-((2S)-2-hydroxy-3-(8-tosyl-1-oxa-8-azaspiro[4.5]decan-3-ylamino)propoxy)-N-methylbenzenesulfonamide]	0.0218 µM
CNS(=O)(=O)c1cccc(OC[C@@H](O)CNC2COC3(CCN(S(=O)(=O)c4ccccc4Br)CC3)C2)c1 (stereo partly drawn) [Compound 54, 3-((2S)-3-(8-(2-bromophenylsulfonyl)-1-oxa-8-azaspiro[4.5]decan-3-ylamino)-2-hydroxypropoxy)-N-methylbenzenesulfonamide]	0.0174 µM
CNS(=O)(=O)c1cccc(OC[C@@H](O)CNC2COC3(CCN(S(=O)(=O)c4cccc(C(=O)O)c4)CC3)C2)c1 (stereo partly drawn) [Compound 56, 3-(3-((S)-2-hydroxy-3-(3-(N-methylsulfamoyl)phenoxy)propylamino)-1-oxa-8-azaspiro[4.5]decan-8-ylsulfonyl)benzoic acid]	0.387 µM
CNS(=O)(=O)c1cccc(OC[C@@H](O)CNC2COC3(CCN(S(=O)(=O)c4cccc(-c5c(C)noc5C)c4)CC3)C2)c1 (stereo partly drawn) [Compound 59, 3-((2S)-3-(8-(3-(3,5-dimethylisoxazol-4-yl)phenylsulfonyl)-1-oxa-8-azaspiro[4.5]decan-3-ylamino)-2-hydroxypropoxy)-N-methylbenzenesulfonamide]	0.0145 µM
COCCN(C)S(=O)(=O)c1cccc(OC[C@@H](O)CNC2COC3(CCN(S(=O)(=O)c4ccc5ccccc5c4)CC3)C2)c1 (stereo partly drawn) [Compound 60, 3-((2S)-2-hydroxy-3-(8-(naphthalen-2-ylsulfonyl)-1-oxa-8-azaspiro[4.5]decan-3-ylamino)propoxy)-N-(2-methoxyethyl)-N-methylbenzenesulfonamide]	0.0588 µM
CNS(=O)(=O)c1cccc(OC[C@@H](O)CNC2COC3(CCN(S(=O)(=O)c4cccc(-c5cnn(C)c5)c4)CC3)C2)c1 (stereo partly drawn) [Compound 61, 3-((2S)-2-hydroxy-3-(8-(3-(1-methyl-1H-pyrazol-4-yl)phenylsulfonyl)-1-oxa-8-azaspiro[4.5]decan-3-ylamino)propoxy)-N-methylbenzenesulfonamide]	0.0135 µM
CNS(=O)(=O)c1cccc(OC[C@@H](O)CNC2COC3(CCN(S(=O)(=O)c4cccc(-c5cn(C)nc5C(F)(F)F)c4)CC3)C2)c1 (stereo partly drawn) [Compound 62, 3-((2S)-2-hydroxy-3-(8-(3-(1-methyl-3-(trifluoromethyl)-1H-pyrazol-4-yl)phenylsulfonyl)-1-oxa-8-azaspiro[4.5]decan-3-ylamino)propoxy)-N-methylbenzenesulfonamide]	0.0449 µM
CNS(=O)(=O)c1cccc(OC[C@@H](O)CNC2COC3(CCN(S(=O)(=O)c4cccc(-c5cccc(CN)c5)c4)CC3)C2)c1 (stereo partly drawn) [Compound 67, 3-((2S)-3-(8-(3′-(aminomethyl)biphenyl-3-ylsulfonyl)-1-oxa-8-azaspiro[4.5]decan-3-ylamino)-2-hydroxypropoxy)-N-methylbenzenesulfonamide]	0.0231 µM
CCn1cc(-c2cccc(S(=O)(=O)N3CCC4(CC3)CC(NC[C@H](O)COc3cccc(S(=O)(=O)NC)c3)CO4)c2)cn1 (stereo partly drawn) [Compound 69, 3-((2S)-3-(8-(3-(1-ethyl-1H-pyrazol-4-yl)phenylsulfonyl)-1-oxa-8-azaspiro[4.5]decan-3-ylamino)-2-hydroxypropoxy)-N-methylbenzenesulfonamide]	0.0211 µM
CNS(=O)(=O)c1cccc(OC[C@@H](O)CNC2COC3(CCN(S(=O)(=O)c4cccc(-c5cccc(S(C)(=O)=O)c5)c4)CC3)C2)c1 (stereo partly drawn) [Compound 71, 3-((2S)-2-hydroxy-3-(8-(3′-(methylsulfonyl)biphenyl-3-ylsulfonyl)-1-oxa-8-azaspiro[4.5]decan-3-ylamino)propoxy)-N-methylbenzenesulfonamide]	0.0312 µM
CNS(=O)(=O)c1cccc(OC[C@@H](O)CNC2COC3(CCN(S(=O)(=O)c4cccc(-c5sc(C)nc5C)c4)CC3)C2)c1 (stereo partly drawn) [Compound 73, 3-((2S)-3-(8-(3-(2,4-dimethylthiazol-5-yl)phenylsulfonyl)-1-oxa-8-azaspiro[4.5]decan-3-ylamino)-2-hydroxypropoxy)-N-methylbenzenesulfonamide]	0.0221 µM

Other lines, results leading:

IC50	SMILES
0.018 µM	CNS(=O)(=O)c1cccc(OC[C@@H](O)CNC2COC3(CCN(S(=O)(=O)c4cccc5ccccc45)CC3)C2)c1 (stereo partly drawn) [Compound 55, 3-((2S)-2-hydroxy-3-(8-(naphthalen-1-ylsulfonyl)-1-oxa-8-azaspiro[4.5]decan-3-ylamino)propoxy)-N-methylbenzenesulfonamide]
0.0317 µM	CNS(=O)(=O)c1cccc(OC[C@@H](O)CNC2COC3(CCN(S(=O)(=O)c4ccc(OC(F)(F)F)cc4)CC3)C2)c1 (stereo partly drawn) [Compound 57, 3-((2S)-2-hydroxy-3-(8-(4-(trifluoromethoxy)phenylsulfonyl)-1-oxa-8-azaspiro[4.5]decan-3-ylamino)propoxy)-N-methylbenzenesulfonamide]
0.043 µM	CNS(=O)(=O)c1cccc(OC[C@@H](O)CNC2COC3(CCN(S(=O)(=O)c4ccc5[nH]c(=O)sc5c4)CC3)C2)c1 (stereo partly drawn) [Compound 58, 3-((2S)-2-hydroxy-3-(8-(2-oxo-2,3-dihydrobenzo[d]thiazol-6-ylsulfonyl)-1-oxa-8-azaspiro[4.5]decan-3-ylamino)propoxy)-N-methylbenzenesulfonamide]
0.0193 µM	CNS(=O)(=O)c1cccc(OC[C@@H](O)CNC2COC3(CCN(S(=O)(=O)c4cccc(-c5cc[nH]c5)c4)CC3)C2)c1 (stereo partly drawn) [Compound 63, 3-((2S)-3-(8-(3-(1H-pyrrol-3-yl)phenylsulfonyl)-1-oxa-8-azaspiro[4.5]decan-3-ylamino)-2-hydroxypropoxy)-N-methylbenzenesulfonamide]
0.0111 µM	CNS(=O)(=O)c1cccc(OC[C@@H](O)CNC2COC3(CCN(S(=O)(=O)c4cccc(-c5cn[nH]c5)c4)CC3)C2)c1 (stereo partly drawn) [Compound 64, 3-((2S)-3-(8-(3-(1H-pyrazol-4-yl)phenylsulfonyl)-1-oxa-8-azaspiro[4.5]decan-3-ylamino)-2-hydroxypropoxy)-N-methylbenzenesulfonamide]
0.0856 µM	CNS(=O)(=O)c1cccc(OC[C@@H](O)CNC2COC3(CCN(S(=O)(=O)c4cccc(-c5cccc(COC)c5)c4)CC3)C2)c1 (stereo partly drawn) [Compound 65, 3-((2S)-2-hydroxy-3-(8-(3′-(methoxymethyl)biphenyl-3-ylsulfonyl)-1-oxa-8-azaspiro[4.5]decan-3-ylamino)propoxy)-N-methylbenzenesulfonamide]
0.0227 µM	CNS(=O)(=O)c1cccc(OC[C@@H](O)CNC2COC3(CCN(S(=O)(=O)c4cccc(-c5ccsc5)c4)CC3)C2)c1 (stereo partly drawn) [Compound 66, 3-((2S)-2-hydroxy-3-(8-(3-(thiophen-3-yl)phenylsulfonyl)-1-oxa-8-azaspiro[4.5]decan-3-ylamino)propoxy)-N-methylbenzenesulfonamide]
0.0369 µM	CNS(=O)(=O)c1cccc(OC[C@@H](O)CNC2COC3(CCN(S(=O)(=O)c4cccc(-c5cn(C)nc5C)c4)CC3)C2)c1 (stereo partly drawn) [Compound 68, 3-((2S)-3-(8-(3-(1,3-dimethyl-1H-pyrazol-4-yl)phenylsulfonyl)-1-oxa-8-azaspiro[4.5]decan-3-ylamino)-2-hydroxypropoxy)-N-methylbenzenesulfonamide]
0.0257 µM	CNS(=O)(=O)c1cccc(OC[C@@H](O)CNC2COC3(CCN(S(=O)(=O)c4cccc(-c5cnn(CCO)c5)c4)CC3)C2)c1 (stereo partly drawn) [Compound 70, 3-((2S)-2-hydroxy-3-(8-(3-(1-(2-hydroxyethyl)-1H-pyrazol-4-yl)phenylsulfonyl)-1-oxa-8-azaspiro[4.5]decan-3-ylamino)propoxy)-N-methylbenzenesulfonamide]
0.0287 µM	CNS(=O)(=O)c1cccc(OC[C@@H](O)CNC2COC3(CCN(S(=O)(=O)c4cccc(-c5cccc(C#N)c5)c4)CC3)C2)c1 (stereo partly drawn) [Compound 72, 3-((2S)-3-(8-(3′-cyanobiphenyl-3-ylsulfonyl)-1-oxa-8-azaspiro[4.5]decan-3-ylamino)-2-hydroxypropoxy)-N-methylbenzenesulfonamide]
0.236 µM	O=S(=O)(NC1CC1)c1cccc(OC[C@@H](O)CNC2COC3(CCN(S(=O)(=O)c4ccc5ccccc5c4)CC3)C2)c1 (stereo partly drawn) [Compound 74, N-cyclopropyl-3-((2S)-2-hydroxy-3-(8-(naphthalen-2-ylsulfonyl)-1-oxa-8-azaspiro[4.5]decan-3-ylamino)propoxy)benzenesulfonamide]
